# Data taken from US12528801B2 (Givaudan SA, priority 2019, dated 2026).
# Target: T1, hTRPM8 (Homo sapiens, UniProt Q7Z2W7)
# T1 construct: expressed in transfected cells
# Experiment: Assay on TRPM8 modulators: calcium imaging (Fluo-4, Flexstation) in HEK293 cell line stably expressing hTRPM8
# Format: cell-based
# Conditions: HEK293 cells stably expressing hTRPM8; calcium influx, Fluo-4, Flexstation 3; sigmoidal dose-response fit
# Summary of the method: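 HEK293 cells stably expressing hTRPM8 were loaded with Fluo-4 AM plus probenecid and kept in HEPES buffer, pH 7.4. Calcium influx to serially diluted compounds was recorded for 120 s. Maximal activation was referenced to solvent control and 31.6 μM menthol, with EC values from sigmoidal dose-response fits.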
# T1 sequence (Q7Z2W7 whole entry): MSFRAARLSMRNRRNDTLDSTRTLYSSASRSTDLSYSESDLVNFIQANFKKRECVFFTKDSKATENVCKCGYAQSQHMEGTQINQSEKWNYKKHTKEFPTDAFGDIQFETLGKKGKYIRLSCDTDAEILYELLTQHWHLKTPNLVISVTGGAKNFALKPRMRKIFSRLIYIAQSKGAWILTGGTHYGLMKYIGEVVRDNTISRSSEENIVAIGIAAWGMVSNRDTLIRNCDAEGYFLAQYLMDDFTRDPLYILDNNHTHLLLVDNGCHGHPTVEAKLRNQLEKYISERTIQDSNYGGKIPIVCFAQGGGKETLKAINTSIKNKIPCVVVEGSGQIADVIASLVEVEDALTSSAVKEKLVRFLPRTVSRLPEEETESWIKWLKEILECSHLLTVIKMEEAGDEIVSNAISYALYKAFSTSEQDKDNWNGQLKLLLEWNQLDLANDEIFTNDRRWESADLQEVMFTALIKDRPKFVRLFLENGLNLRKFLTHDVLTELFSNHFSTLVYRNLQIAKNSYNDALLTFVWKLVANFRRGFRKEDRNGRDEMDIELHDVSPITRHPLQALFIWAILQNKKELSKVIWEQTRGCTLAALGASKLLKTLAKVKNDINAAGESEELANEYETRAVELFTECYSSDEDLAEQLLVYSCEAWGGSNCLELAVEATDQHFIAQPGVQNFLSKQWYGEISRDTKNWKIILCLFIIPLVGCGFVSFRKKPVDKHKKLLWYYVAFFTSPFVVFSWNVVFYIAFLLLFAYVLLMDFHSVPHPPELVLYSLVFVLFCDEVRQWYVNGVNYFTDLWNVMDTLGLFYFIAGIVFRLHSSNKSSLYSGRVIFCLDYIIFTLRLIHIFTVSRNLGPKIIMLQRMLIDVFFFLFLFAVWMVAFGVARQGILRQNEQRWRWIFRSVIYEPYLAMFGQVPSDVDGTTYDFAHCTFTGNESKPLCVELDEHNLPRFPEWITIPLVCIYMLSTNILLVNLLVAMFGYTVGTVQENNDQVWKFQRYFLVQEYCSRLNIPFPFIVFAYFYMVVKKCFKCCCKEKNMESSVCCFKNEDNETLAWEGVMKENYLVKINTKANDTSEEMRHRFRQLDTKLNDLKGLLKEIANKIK
row,Structure (SMILES),EC50 [nM]
1,"CNCC(=O)Nc1ccc(-c2cnc(C3CCCCN3C(=O)C(C)SC)[nH]2)cc1 (stereo not shown) [Compound 100, 2-(methylamino)-N-(4-(2-(1-(2-(methylthio)propanoyl)piperidin-2-yl)-1H-imidazol-5-yl)phenyl)acetamide]",50 to 300
2,"Cc1ccc(-c2cnc(C3CCCCN3C(=O)C(C)[S+](C)[O-])[nH]2)cc1 (stereo not shown) [Compound 101, 2-(methylsulfinyl)-1-(2-(5-(p-tolyl)-1H-imidazol-2-yl)piperidin-1-yl)propan-1-one]",50 to 300
3,"CS(=O)(=O)CC(=O)N1CCCCC1c1nc(-c2ccccc2)c[nH]1 (stereo not shown) [Compound 102, 2-(methylsulfonyl)-1-(2-(4-phenyl-1H-imidazol-2-yl)piperidin-1-yl)ethan-1-one]",1000 to 35000
4,"CC(C(=O)N1CCCCC1c1nc(-c2ccccc2)c[nH]1)S(C)(=O)=O (stereo not shown) [Compound 103, 2-(methylsulfonyl)-1-(2-(4-phenyl-1H-imidazol-2-yl)piperidin-1-yl)propan-1-one]",1000 to 35000
5,"CSC(C)C(=O)N1CCCCC1c1nnn(-c2ccc(C)cc2)n1 (stereo not shown) [Compound 104, 2-(methylthio)-1-(2-(2-(p-toly)-2H-tetrazol-5-yl)piperidin-1-yl)propan-1-one]",< 50
6,"CSC(C)C(=O)N1CCCCC1c1nc(-c2ccccc2)no1 (stereo not shown) [Compound 105, 2-(methylthio)-1-(2-(3-phenyl-1,2,4-oxadiazol-5-yl)piperidin-1-yl)propan-1-one]",300 to 1000
7,"CSC(C)C(=O)N1CCCCC1c1nc(-c2cnn(C(F)(F)F)c2)c[nH]1 (stereo not shown) [Compound 106, 2-(methylthio)-1-(2-(4-(1-(trifluoromethyl)-1H-pyrazol-4-yl)-1H-imidazol-2-yl)piperidin-1-yl)propan-1-one]",50 to 300
8,"CSC(C)C(=O)N1CCCCC1c1nc(-c2ccc(CN3CCOCC3)cc2)c[nH]1 (stereo not shown) [Compound 107, 2-(methylthio)-1-(2-(4-(4-(morpholinomethyl)phenyl)-1H-imidazol-2-yl)piperidin-1-yl)propan-1-one]",1000 to 35000
9,"CSC(C)C(=O)N1CCCCC1c1nc(-c2ccc(C(F)(F)F)o2)c[nH]1 (stereo not shown) [Compound 108, 2-(methylthio)-1-(2-(4-(5-(trifluoromethyl)furan-2-yl)-1H-imidazol-2-yl)piperidin-1-yl)propan-1-one]",< 50
10,"CSC(C)C(=O)N1CCCCC1c1nc(-c2ccc(C(F)(F)F)s2)c[nH]1 (stereo not shown) [Compound 109, 2-(methylthio)-1-(2-(4-(5-(trifluoromethyl)thiophen-2-yl)-1H-imidazol-2-yl)piperidin-1-yl)propan-1-one]",< 50
11,"CSC(C)C(=O)N1CCCCC1c1nc(-c2csc(C)c2)c[nH]1 (stereo not shown) [Compound 110, 2-(methylthio)-1-(2-(4-(5-methylthiophen-3-yl)-1H-imidazol-2-yl)piperidin-1-yl)propan-1-one]",< 50
12,"CSC(C)C(=O)N1CCCCC1c1nc(-c2cccc(C)c2)c[nH]1 (stereo not shown) [Compound 111, 2-(methylthio)-1-(2-(4-(m-tolyl)-1H-imidazol-2-yl)piperidin-1-yl)propan-1-one]",50 to 300
13,"CSC(C)C(=O)N1CCCCC1c1nc(-c2ccccc2C)c[nH]1 (stereo not shown) [Compound 112, 2-(methylthio)-1-(2-(4-(o-tolyl)-1H-imidazol-2-yl)piperidin-1-yl)propan-1-one]",50 to 300
14,"CSC(C)C(=O)N1CCCCC1c1nc(-c2cccnc2)c[nH]1 (stereo not shown) [Compound 113, 2-(methylthio)-1-(2-(4-(pyridin-3-yl)-1H-imidazol-2-yl)piperidin-1-yl)propan-1-one]",300 to 1000
15,"CSC(C)C(=O)N1CCCCC1c1nc(-c2ccncc2)c[nH]1 (stereo not shown) [Compound 114, 2-(methylthio)-1-(2-(4-(pyridin-4-yl)-1H-imidazol-2-yl)piperidin-1-yl)propan-1-one]",300 to 1000
16,"CSC(C)C(=O)N1CCCCC1c1nc(-c2cncnc2)c[nH]1 (stereo not shown) [Compound 115, 2-(methylthio)-1-(2-(4-(pyrimidin-5-yl)-1H-imidazol-2-yl)piperidin-1-yl)propan-1-one]",1000 to 35000
